For data set [1], the system named is mouse. Particulars: Prenatal developmental toxicity study, cd1, Oral, Gavage/Intubation, dose end: 15 GD.
Data set [2] concerns mouse. Particulars: Multigenerational reproductive toxicity study, cd1, Oral, Feed, dose end: 2 generation.
The next data set deals with rabbit. The note with it: Prenatal developmental toxicity study, new zealand white, Oral, Gavage/Intubation, dose end: 20 GD.
The test system of data set [3] is rat. The note with it: Multigenerational reproductive toxicity study, sprague dawley, Oral, Feed, dose end: 2 generation, systemic / hematology / erythrocyte (rbc) count differential / erythrocyte (rbc) + systemic / hematology / hematocrit (hct) / hematocrit (….
The subject of data set [4] is rat. Particulars: Subchronic oral toxicity in rodents, sprague dawley, Gavage/Intubation, dose end: 19 GD.
Where [5] appears, read: group: developmental, developmental / developmental malformation / bone / exencephaly + developmental / developmental malformation / trunk / omphalocele + ….
The mark [6] stands for this setting: group: maternal, reproductive / reproductive performance / resorptions / resorptions + systemic / in life observation / body weight / dam weight.
Setting [7] is: group: maternal, reproductive / reproductive performance / resorptions / resorptions + systemic / in life observation / body weight / dam weight + ….
The mark [8] stands for this setting: group: offspring, systemic / in life observation / body weight / offspring (pup) weight + developmental / offspring survival late / lactation index / ….
Where [9] appears, read: group: parental, systemic / in life observation / body weight / body weight + systemic / in life observation / body weight / body weight gain + systemic / in….
Where [10] appears, read: group: reproductive, reproductive / reproductive performance / fertility / fertility.
Where [11] appears, read: group: reproductive, reproductive / reproductive performance / fertility / fertility + reproductive / offspring survival early / litter size / litter size.
Setting [12] is: group: developmental, systemic / in life observation / body weight / fetal weight.
Setting [13] is: group: maternal, reproductive / reproductive performance / aborted / aborted + systemic / in life observation / body weight / body weight gain.
The mark [14] stands for this setting: group: developmental, developmental / developmental malformation / bone / ossification sites + developmental / developmental malformation / bone / supernumerary.
[15] abbreviates: group: systemic, systemic / in life observation / body weight / body weight + systemic / in life observation / body weight / body weight gain + systemic / in….

Usually LOAEL stands for the lowest dose or exposure tested at which an adverse effect was seen. As a reminder, the NOAEL is the highest dose or exposure tested at which no adverse effect was seen. As for `O=[As](O)(O)O` [Arsenic acid], the LEL turned out to be 64 mg/kg/day with mouse [1] (setting [5]); 32 mg/kg/day with mouse [1] (setting [6]); 25 mg/kg/day in the data set with mouse [2] (setting [8]); 5 mg/kg/day with mouse [2] (setting [9]); 25 mg/kg/day in the data set with mouse [2] (setting [11]). Moreover, the LOAEL is 64 mg/kg/day in the data set with mouse [1] (setting [5]); 32 mg/kg/day with mouse [1] (setting [6]); 25 mg/kg/day with mouse [2] (group: offspring, systemic / in life observation / body weight / offspring (pup) weight); 5 mg/kg/day in the data set on mouse [2] (setting [9]); 25 mg/kg/day with mouse [2] (setting [11]). Moreover, the NEL stood at 32 mg/kg/day in the data set with mouse [1] (setting [5]); 10 mg/kg/day in the data set on mouse [1] (setting [7]); 5 mg/kg/day in the data set on mouse [2] (setting [8]); 1 mg/kg/day in the data set on mouse [2] (setting [9]); 5 mg/kg/day in the data set with mouse [2] (setting [10]). In addition, the NOAEL in the data set on mouse [1] (setting [5]) is 32 mg/kg/day; in the data set on mouse [1] (setting [7]), 10 mg/kg/day; with mouse [2] (setting [8]) it was 5 mg/kg/day; in the data set with mouse [2] (setting [9]) it was 1 mg/kg/day; in the data set on mouse [2] (setting [10]) it was 5 mg/kg/day.
As for `O=S(=O)(O)C(F)(F)C(F)(F)C(F)(F)C(F)(F)C(F)(F)C(F)(F)C(F)(F)C(F)(F)F` [PFOS], in the data set on rabbit (setting [12]), the LEL is 3.75 mg/kg/day, the LOAEL is above 3.75 mg/kg/day, the NEL stood at 1 mg/kg/day and the NOAEL is at least 3.75 mg/kg/day. Moreover, in the data set on rabbit (setting [13]), the LOAEL is above 2.5 mg/kg/day, the NEL amounted to 0.1 mg/kg/day and the NOAEL is at least 2.5 mg/kg/day. Moreover, in the data set with rabbit (group: maternal, systemic / in life observation / body weight / body weight gain), the LEL came out at 1 mg/kg/day.
As to `O=C(Nc1ccc(F)cc1)c1cccc(Oc2cccc(C(F)(F)F)c2)n1` [Picolinafen], in the data set on rat [3] (group: offspring), the LEL stood at 21 mg/kg/day, the LOAEL was above 43 mg/kg/day, the NEL is 4.3 mg/kg/day and the NOAEL is at least 43 mg/kg/day. Also, in the data set with rat [3] (group: parental), the LEL came to 19 mg/kg/day, the LOAEL stood at 19 mg/kg/day, the NEL was 3.7 mg/kg/day and the NOAEL was 3.7 mg/kg/day.
As for `CC(=O)OC(C)(C)C` [tert-Butyl acetate], in the data set on rat [4] (setting [14]), the LEL was 800 mg/kg/day, the LOAEL was above 1600 mg/kg/day, the NEL came to 400 mg/kg/day and the NOAEL was at least 1600 mg/kg/day. Further, in the data set with rat [4] (setting [15]), the LEL amounted to 1600 mg/kg/day, the LOAEL is above 1600 mg/kg/day, the NEL worked out at 800 mg/kg/day and the NOAEL was at least 1600 mg/kg/day.

The values are drawn from EPA's ToxRefDB 2.
